The text below walks through data of ChEMBL document CHEMBL1127585, “Novel 1-phenylcycloalkanecarboxylic acid derivatives are potent and selective sigma 1 ligands” (J Med Chem, 1994).

The target in test [1] is Sigma 2 receptor. As to the kind of experiment: Tested for its binding affinity towards sigma-2 site in rat brain using [3H]DTG as radioligand. It is filed as tissue-based.
For test [2], the target named is Sigma non-opioid intracellular receptor 1 (Rattus norvegicus) (UniProt Q9R0C9). As to the kind of experiment: Ratio between the Ki values of sigma-2 and sigma-1 receptors.
A further test has as its system Glutamate NMDA receptor. Put plainly: Binding affinity towards PCP (1-(1-phenylcyclohexyl)piperidine) receptor. It is filed as protein-complex assay.
Test [3] addresses T1, Sigma non-opioid intracellular receptor 1 (Rattus norvegicus, UniProt Q9R0C9). As to the kind of experiment: Tested for its binding affinity towards sigma-1 site in rat brain using E3H1-(+)-SKF 10047 as radioligand in rat brain. It is filed as tissue-based.
For test [4], the target named is T2, Muscarinic acetylcholine receptor M2 (Homo sapiens, UniProt P08172).
T2 sequence (P08172 whole entry): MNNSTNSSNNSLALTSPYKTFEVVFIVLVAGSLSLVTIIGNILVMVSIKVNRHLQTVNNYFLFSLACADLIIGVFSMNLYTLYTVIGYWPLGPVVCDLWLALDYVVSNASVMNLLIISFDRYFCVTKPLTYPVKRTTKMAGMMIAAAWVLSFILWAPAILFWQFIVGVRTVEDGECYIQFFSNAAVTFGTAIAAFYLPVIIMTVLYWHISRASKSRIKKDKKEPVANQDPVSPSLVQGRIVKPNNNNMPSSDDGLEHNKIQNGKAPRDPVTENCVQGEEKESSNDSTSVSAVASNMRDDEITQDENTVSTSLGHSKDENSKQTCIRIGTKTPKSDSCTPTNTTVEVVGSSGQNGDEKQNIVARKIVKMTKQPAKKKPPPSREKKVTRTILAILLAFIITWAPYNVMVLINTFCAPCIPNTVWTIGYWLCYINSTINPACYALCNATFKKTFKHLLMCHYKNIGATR
Put plainly: Binding affinity towards muscarinic m2 receptor.

Test [5] concerns the target T3, Muscarinic acetylcholine receptor M1 (Homo sapiens, UniProt P11229).
T3 sequence (P11229 whole entry): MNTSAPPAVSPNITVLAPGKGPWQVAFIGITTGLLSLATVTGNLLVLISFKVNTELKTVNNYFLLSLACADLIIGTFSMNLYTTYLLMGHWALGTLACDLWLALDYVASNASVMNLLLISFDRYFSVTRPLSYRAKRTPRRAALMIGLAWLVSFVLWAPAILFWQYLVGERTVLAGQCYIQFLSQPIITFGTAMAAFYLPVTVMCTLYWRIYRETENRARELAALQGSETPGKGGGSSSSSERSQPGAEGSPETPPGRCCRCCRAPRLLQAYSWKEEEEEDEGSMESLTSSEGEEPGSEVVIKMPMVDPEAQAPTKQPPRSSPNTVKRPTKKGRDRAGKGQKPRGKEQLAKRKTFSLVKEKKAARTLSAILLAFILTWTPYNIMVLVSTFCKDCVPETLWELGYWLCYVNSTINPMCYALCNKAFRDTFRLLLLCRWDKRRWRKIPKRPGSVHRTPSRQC
Put plainly: Binding affinity towards muscarinic m1 receptor.

Test [6] is described as follows: Ratio between the Ki values of m1 and sigma-1 receptors.
Test [7] addresses T1, Sigma non-opioid intracellular receptor 1. Put plainly: Tested for its binding affinity towards sigma-1 site using E3H1-(+)-SKF 10047 as radioligand in rat brain. It is filed as tissue-based.
Test [8] addresses Sigma 2 receptor. As to the kind of experiment: Tested for its binding affinity towards sigma-2 site using [3H]-DTG as radioligand.
Test [9] has as its target T1, Sigma non-opioid intracellular receptor 1. Put plainly: Tested for its binding affinity towards sigma-1 site in rat brain, using [3H]-(+)-SKF- 10047 as radioligand. It is filed as tissue-based.
The target is the same in test [10]. Put plainly: Tested for its binding affinity towards sigma-1 site in rat brain, using [3H]DTG as radioligand. It is filed as tissue-based.

Chain of Sigma non-opioid intracellular receptor 1 (Rattus norvegicus) (Q9R0C9 whole entry): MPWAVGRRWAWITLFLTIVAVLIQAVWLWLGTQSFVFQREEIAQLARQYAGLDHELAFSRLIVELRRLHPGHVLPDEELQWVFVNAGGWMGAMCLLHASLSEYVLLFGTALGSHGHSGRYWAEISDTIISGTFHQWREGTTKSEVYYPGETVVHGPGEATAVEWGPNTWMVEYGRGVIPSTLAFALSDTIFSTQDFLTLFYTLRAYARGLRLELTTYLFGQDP
T1 sequence (Q9R0C9 whole entry): as above

For `O=C(NCOCCN1CCOCC1)C1(c2ccc(Cl)c(Cl)c2)CCCCC1`, the inhibitory constant (Ki) on Sigma 2 receptor [1] was 1640 nM; in the test on Glutamate NMDA receptor, “Not Active”; in [3], 32 nM; in [4] it was > 10000 nM; in [5], > 10000 nM. In addition, the values for the Ratio in test [2] and in test [6] were 51 and > 310, respectively.
For the compound `C=CCN1CCC2c3cc(O)ccc3CC1C2C` (stereo unspecified), the figures for the inhibitory constant (Ki) entry (with Glutamate NMDA receptor; in [7]; at Sigma 2 receptor [8]) were “Not Active”, 67 nM and 44 nM, respectively.
With `CCN(CC)CCOCOC(=O)C1(c2ccc(Cl)c(Cl)c2)CCCCC1`, the Ki at Sigma 2 receptor [1] is 667 nM; in the test on Glutamate NMDA receptor, “Not Active”; in test [3] it was 22 nM; in test [4] it was 22 nM; in test [5], 20 nM. For the same compound, the values for the Ratio in test [2] and in [6] were 30 and 0.9, respectively.
For `CCN(CC)CCOCCOC(=O)C1(c2ccc(Cl)cc2)CCCC1`, the inhibition constant (Ki) is 648 nM at Sigma 2 receptor [1]; “Not Active” in the test with Glutamate NMDA receptor; 24 nM in test [3]; 97 nM in test [4]; 75 nM in test [5]. The figures for the Ratio in [2] and in test [6] were 27 and 3.1, respectively.
For the compound `CCN(CC)CCOCCOC(=O)C(C)c1ccccc1` (stereo unspecified), the Ki on Sigma 2 receptor [1] was 3110 nM; in the test on Glutamate NMDA receptor, “Not Active”; in test [3], 40 nM; in [4], > 10000 nM; in [5], > 10000 nM. In addition, the Ratio was 78 in test [2] and > 250 in test [6].
Regarding `CCN(CC)CCOCCOC(=O)C1(c2ccc(OC)cc2)CCCC1`, the Ki came to 1500 nM at Sigma 2 receptor [1], 59 nM in test [3], 692 nM in [4] and 1060 nM in test [5]. The Ratio was 25 in test [2] and 18 in test [6].
As for `CCN(CC)CCOCCNCC1(c2ccccc2)CCCC1`, the Ki is 1100 nM at Sigma 2 receptor [1]; “Not Active” in the test on Glutamate NMDA receptor; 884 nM in [3]; 2270 nM in test [4]; 1700 nM in [5]. The figures for the Ratio in test [2] and in test [6] were 1.2 and 1.9, respectively.
`O=C(OCCN1CCOCC1)C1(c2ccccc2)CCCCC1` registered a Ki in test [9] of 44 nM.
As for `O=C(OCOCCN1CCOCC1)C1(c2ccc(Cl)c(Cl)c2)CCCCC1`, the inhibition constant Ki on Sigma 2 receptor [1] is 981 nM; in the test with Glutamate NMDA receptor, “Not Active”; in [3] it was 39 nM; in [4] it was 1190 nM; in [5], 3110 nM. Besides, the figures for the Ratio in [2] and in test [6] were 25 and 80, respectively.
As to `CCN(CC)CCOCNC(=O)C1(c2ccc(Cl)c(Cl)c2)CCCCC1`, the inhibition constant (Ki) is 527 nM on Sigma 2 receptor [1]; “Not Active” with Glutamate NMDA receptor; 27 nM in test [3]; 500 nM in test [4]; 581 nM in test [5]. Also, the results for the Ratio in test [2] and in [6] were 20 and 22, respectively.
As to `c1ccc(CCCCCNCCCCc2ccccc2)cc1`, the affinity in test [10], expressed as Ki, was 2 nM.
As to `CCN(CC)CCOCCNC(=O)C1(c2ccccc2)CCCC1`, the inhibition constant (Ki) on Sigma 2 receptor [1] is 2840 nM; in the test on Glutamate NMDA receptor, “Not Active”; in test [3] it was 215 nM; in test [4] it was 4900 nM; in test [5], > 10000 nM. Further, the Ratio in test [2] was 13; in test [6], > 46.
Take `CCN(CC)CCOCCOC(=O)C1(c2ccccc2)CCCC1` [CARBETAPENTANE]: the inhibition constant (Ki) entry was “Not Active” in the test with Glutamate NMDA receptor, 167 nM in test [4] and 76 nM in [5].
With `CCN(CC)CCOCCOCC1(c2ccccc2)CCCC1`, the inhibitory constant (Ki) at Sigma 2 receptor [1] is 463 nM; in the test on Glutamate NMDA receptor, “Not Active”; in [3] it was 27 nM; in [4] it was 844 nM; in [5], 910 nM. For the same compound, the Ratio is 17 in [2] and 34 in [6].
Consider `Cc1ccccc1NC(=N)Nc1ccccc1C` [DITOLYLGUANIDINE], for which, in the test with Glutamate NMDA receptor, the inhibition constant Ki result is “Not Active”.
For the compound `CCN(CC)CCOCCN(C)CC1(c2ccccc2)CCCC1`, the Ki at Sigma 2 receptor [1] was 1100 nM; in the test with Glutamate NMDA receptor, “Not Active”; in test [3] it was 34 nM; in [4], 1570 nM; in [5], 843 nM. Further, the Ratio in [2] was 32; in [6] it was 25.
For the compound `CCN(CC)CCOCCOC(=O)C1(c2ccccc2)CCCCC1`, the Ki on Sigma 2 receptor [1] was 780 nM; in the test with Glutamate NMDA receptor, “Not Active”; in test [3] it was 34 nM; in [4], 145 nM; in [5], 135 nM. Moreover, the Ratio in [2] amounted to 23; in [6], 4.
On to `CCN(CC)CCOCCOC(=O)C1(c2ccccc2)CC1`, for which the Ki was 2910 nM at Sigma 2 receptor [1]; “Not Active” in the test on Glutamate NMDA receptor; 45 nM in [3]; > 10000 nM in test [4]; > 10000 nM in [5]. The Ratio in test [2] is 65; in [6], > 220.
On to `O=C(OCOCCN1CCCC1)C1(c2ccc(Cl)c(Cl)c2)CCCCC1`, for which the inhibition constant Ki at Sigma 2 receptor [1] was 688 nM; in the test with Glutamate NMDA receptor it was “Not Active”; in test [3], 32 nM; in test [4], 74 nM; in test [5] it was 63 nM. Also, the Ratio in test [2] amounted to 22; in [6], 2.

Usually Ki stands for the dissociation constant of the complex between target and ligand, obtained from inhibition or displacement. High values mean a looser hold on the target, low ones a stronger hold on the target.
